The text below walks through data of patent US20220287995A1, “COMPOSITIONS AND METHODS FOR INHIBITING BACTERIAL VIRULENCE AND FLIM-BASED DEVICE AND METHOD FOR ANTIBIOTIC SUSCEPTIBILITY TESTING” (THE REGENTS OF THE UNIVERSITY OF CALIFORNIA, priority 2019, published 2022).

The test system of test [1] is E. coli. In words: FLIM-phasors of E. coli exposed to ampicillin (preliminary data, FIG. 13). Format: cell-based. The source says: The process of antibiotic susceptibility testing involves: isolation of bacteria from patient samples, immobilization of bacteria on agarose pads that contain different antibiotics supplied above the accepted minimum inhibitory concentration from the major classes commonly used in clinical settings including amoxicillin (penicillin-type), cephalexin (cephalosporin), erythromycin (macrolide), ciprofloxacin (fluoroquinolone), trimethoprim (sulfonamide), tetracycline, and gentamicin (aminoglycoside), imaging using the FLIM-AST device immediately and at 15-minute intervals for 2 hours to assess metabolic kinetics in response to antibiotics (FIG. 12).
The antibiotic susceptibility determination is performed by comparing FLIM-phasor profiles during the 2-hour incubation using software.
The FLIM microscope uses an 80 MHz ultrafast Ti:Sapphire Mai Tai laser (Spectra-physics, Santa Clara, Calif.) set at 740 nm for excitation. […] An H7422P-40 photomultiplier tube module (Hamamatsu, Bridgewater, N.J.) and A320 FastFLIM Box (ISS, Champaign, Ill.) were used to measure fluorescence lifetime. Image acquisition was controlled by SimFCS software (Laboratory for Fluorescence Dynamics, Irvine, Calif.).

The subject of test [2] is surface-attached P. aeruginosa. The test is described as follows: Image-based virulence (host killing) assay with amoeba host cells and calcein-AM. Format: cell-based, Pseudomonas aeruginosa. As for the experimental part:
P. aeruginosa cells were assayed using an image-based virulence assay as described previously (12, 50). P. aeruginosa strains were cultured in PS:DB, diluted 1:100 into 60×15 mm plastic petri dishes (Corning, Corning, N.Y.), cultured for 4 to 6 hours by shaking at 100 rpm, and harvested. Planktonic cells were assayed by transferring 10 μL of culture from the petri dish to a new petri dish, mixing with an equal volume of D. discoideum that were grown to an OD600 of 0.2-0.5, and immobilizing by placing an agar pad on top of the mixture (FIG. 11C). Agar pads were made using Bacto agar at a concentration of 1%, DB buffer, and 1 μM calcein acetoxymethyl (AM) ester (Molecular Probes, Eugene, Oreg.), and were cut into 1.5×1.5 cm squares (12, 50). Surface-attached cells were assayed by aspirating planktonic cells from the culture, washing with DB buffer to remove planktonic cells, mixing with an equal volume of D. discoideum, and immobilizing by placing an agar pad on top of the mixture (FIG. 11C) (50). The immobilized planktonic or surface-attached P. aeruginosa and D. discoideum were incubated at room temperature for 1 hour and imaged using fluorescence microscopy. The host killing index (12, 50) was computed as the average ratio of calcein-AM fluorescence to cell area in individual amoeba cells for 30 to 200 cells in each experiment.
Fluorescence microscopy to assess calcein-AM fluorescence was performed using a Nikon Eclipse Ti-E microscope (Nikon, Melville, N.Y.) containing Nikon 10× Plan Fluor Ph1 (0.3 NA) and 20×S Plan Fluor Nikon (0.45 NA) objectives, a Sola light engine (Lumencor, Beaverton, Oreg.), an LED-DA/FI/TX filter set (Semrock, Rochester, N.Y.) containing a 409/493/596 dichroic and 474/27 nm and 525/45 nm filters for excitation and emission, respectively, and a Hamamatsu Orca Flash 4.0 V2 camera (Hamamatsu, Bridgewater, N.J.). Images were acquired using Nikon NIS-Elements and analyzed using custom built software written previously (12) in Matlab (Mathworks, Natick, Mass.).
For experiments in which strains cultured in PS:DB were supplemented with individual carbon sources (FIG. 5A-D), pyruvic acid, citric acid, […], glycerol, or glucose was added to cultures at a final concentration of 0.2% at 3 hours following a 1:100 dilution from an overnight culture. Cultures were harvested after 1 additional hour of growth for measurements of fluorescence lifetime and NADH and NAD^+ concentrations. For experiments in which surface-attached strains that were cultured in PS:DB media were treated with antimycin A (FIG. 5E-F), 10 μM antimycin A dissolved in 0.1% ethanol, 0.1% ethanol, alone, or 10 μM antimycin A dissolved in 0.1% ethanol and 0.2% citric acid were added after 3 hours of growth following a 1:100 dilution from an overnight culture. Host killing was measured after an additional 1 to 3 hours of growth (total of 4 to 6 hours of growth).

Test [3] concerns E. coli. In words: FLIM-AST (FAST) antibiotic susceptibility, g value and residual ratio (RR). Format: cell-based. The following applies: tetracycline-sensitive vs tetracycline-resistant strain, 1 hour. The source says: We performed FLIM measurements using our FLIM AST (FAST) device of antibiotic-sensitive and antibiotic-resistant E. coli lab strains MG1655 and MC4100, P. aeruginosa strain PA14, and S. aureus strain RN4220 using a broad range of commonly-used antibiotics including tetracycline, ampicillin, carbenicillin, chloramphenicol, spectinomycin, gentamycin, and kanamycin and using a range of concentrations for each drug. For each antibiotic and strain combination, the minimum inhibitory concentration for each antibiotic was determined through measurements of optical densities of cultures. We treated bacterial strains using a range of concentrations starting from below-MIC to above-MIC concentrations for 1 hour.
We computed g values using the FLIM phasor method. Consistent with our predictions, we observed a significant change in g value following treatment by many antibiotics.
To determine a quantitative assessment of resistance, we computed a metric for the degree of antibiotic susceptibility for a given bacterial strain. Our experiments determined that the residual ratio (RR) number was a good indicator of antibiotic resistance:
where the g value is obtained using the phasor method to fluorescence lifetime imaging microscopy (FLIM) and t0 and t1 are the measurement times at the beginning of the measurement or at the end of the experiment, respectively. […]

The subject of another test is P. aeruginosa. In words: Fluorescence lifetime imaging microscopy (FLIM) phasor g-values of P. aeruginosa. Format: cell-based, Pseudomonas aeruginosa. The following applies: planktonic wild-type, 0.2% citrate as sole carbon source, 10 μM antimycin A in 0.1% ethanol vs 0.1% ethanol. As for the experimental part: Fluorescence lifetime measurements were performed using a custom-built multiphoton microscope setup based on an Olympus FV1000 system and an Olympus IX81 microscope (Olympus, Waltham, Mass.) as described previously (68). The FLIM microscope uses an 80 MHz ultrafast Ti:Sapphire Mai Tai laser (Spectra-physics, Santa Clara, Calif.) set at 740 nm for mulitphoton excitation. The setup used a 690-nm SP dichroic-460/80 nm filter pair for separating emission and a PlanApo N Olympus oil immersion 60× (1.42 NA) objective (Olympus, Waltham, Mass.), which is capable of bacterial single-cell resolution imaging. An H7422P-40 photomultiplier tube module (Hamamatsu, Bridgewater, N.J.) and A320 FastFLIM Box (ISS, Champaign, Ill.) were used to measure fluorescence lifetime. Image acquisition was controlled by SimFCS software version 4 (64-bit) (Laboratory for Fluorescence Dynamics, Irvine, Calif.). Planktonic and surface-attached cells were isolated by modifying a protocol described previously (12, 50) (FIG. 11A).
Masks for bacterial cells were created through SimFCS using fluorescence intensity images and image intensity thresholding (FIG. 11B). Fluorescence lifetimes within the masked areas were transformed using
The microscope was calibrated before each session by setting the fluorescence lifetime obtained for 10 μM rhodamine 110 (Sigma, St. Louis, Mo.) to 4.0 ns. The laser power was set to 20% (<3 mW at back aperture of the microscope) using an acousto-optic modulator (AA Opto Electronic, Orsay, France). Sub-cellular fluorescence lifetimes (FIG. 1A) were collected using the 20× digital zoom mode at a rate of 1.7 sec/frame. All other P. aeruginosa measurements were performed using the 6× digital zoom mode using the same frame rate. For all measurements, 40 sequential frames were acquired to generate a single FLIM image.
P. aeruginosa strains were cultured overnight in PS:DB, diluted 1:100 into 35 mm glass-bottom dishes (MatTek Corporation, Ashland, Mass.) containing the same medium, and cultured for 4 to 6 hours (FIGS. 2E-F, 4A, 5A, and 8C). Alternatively, strains were cultured overnight in minimal medium A, diluted 1:100 into modified minimal media A with single carbon sources in culture tubes (FIGS. 6D-E and 7A-B, D) or glass-bottom dishes and cultured to an OD600 of 0.2 (FIG. 2E-F).
Planktonic cells were transferred to a new glass-bottom dish, immobilized using an agar pad, and imaged immediately (FIG. 11A). Agar pads were made using 1% Bacto agar (BD, Franklin Lakes, N.J.) and DB buffer (1, 2) or modified minimal medium A containing no carbon source for strains that were cultured in PS:DB or modified minimal medium, respectively, and were cut into 1.5×1.5 cm squares. Surface-attached cells were isolated by aspirating the supernatant from the dish, washing the dish to remove planktonic cells with DB buffer or modified minimal medium with no carbon source for strains cultured in PS:DB or modified minimal medium, respectively, and placing an agar pad on the dish surface, and were imaged immediately. Imaging was performed at room temperature.
For experiments involving FLIM measurements of the effects of antimycin A (FIG. 7D), P. aeruginosa were grown in culture tubes to saturation in modified minimal medium A containing 0.2% citrate, diluted 1:100 into the same medium in culture tubes, supplemented with 10 μM antimycin A (Sigma, St. Louis, Mo.) with 0.1% ethanol or with 0.1% ethanol, cultured to an OD600 of 0.2, and immediately measured for fluorescence lifetime. Fluorescence lifetimes for pyocyanin and pyoverdine (FIG. 7C) were measured using solutions of 6.2 mM pyocyanin (P0046, Sigma, St. Louis, Mo.) in DMSO and 5 mg/mL pyoverdine (P8124, Sigma, St. Louis, Mo.) in deionized water, respectively. For FIG. 6D, cells with fluorescence intensities below a value of 1.0, as reported by the SimFCS software, were excluded from the analysis. […]

As for `CC1(C)S[C@@H]2[C@H](NC(=O)[C@H](N)c3ccccc3)C(=O)N2[C@H]1C(=O)O` [ampicillin], the “average values along the g-axis” value in the test on E. coli [1] (E. coli exposed to ampicillin) is recorded as “vary with concentration”. The “phasor profile after drug is removed” value in the test with E. coli [1] (E. coli, after ampicillin is removed) is recorded as “recovers to smaller values of g”.

As to `O=P(O)(O)O` [phosphoric acid, reference compound], the “host-killing activity (host killing index)” value in test [2] (surface-attached wild-type P. aeruginosa in rich (PS:DB) medium, supplemented at 3 hours at 0.2%, assessed after 6 hours of growth, amoeba host cells) is reported as “little impact on host-killing activity”.

`CN(C)[C@@H]1C(O)=C(C(N)=O)C(=O)[C@@]2(O)C(O)=C3C(=O)c4c(O)cccc4[C@@](C)(O)[C@H]3C[C@@H]12` [tetracycline]: the “concentration at which the increase in RR value begins” value in the test with E. coli [3] was determined as 50 µg/mL.

Regarding antimycin A [reference compound], in test [2] (surface-attached P. aeruginosa, 10 μM antimycin A in 0.1% ethanol added at 3 hours, host killing at 4.5 to 6 hours), the “virulence induced earlier than untreated cells” value is 30 min. Also, in the test on P. aeruginosa, the “shift in fluorescence lifetime g-value” is recorded as “shift towards higher g-value”.
